Assay results published in paper PMC2932438 (Journal of pharmaceutical and biomedical analysis, 2010).

Tests used:
[1] = tested on: T98G glioma cell line; assay: MTS proliferation assay; type: cell-based; settings: Homo sapiens, 48 h, read-out: IC50 values T98G cell line
[2] = molecular target: T1, immobilized ERRγ ligand binding domain (Homo sapiens, UniProt P62508); assay: Non-linear chromatography
T1 sequence (P62508 233-457 limits assumed): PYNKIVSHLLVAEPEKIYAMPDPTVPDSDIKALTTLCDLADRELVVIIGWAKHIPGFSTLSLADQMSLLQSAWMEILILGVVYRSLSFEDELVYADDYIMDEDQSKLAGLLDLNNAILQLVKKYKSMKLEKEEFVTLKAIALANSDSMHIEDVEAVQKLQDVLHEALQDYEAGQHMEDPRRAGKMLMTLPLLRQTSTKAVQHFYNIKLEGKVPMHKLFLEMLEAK

[3] = molecular target: T2, immobilized ERRα ligand binding domain (Homo sapiens, UniProt P11474); assay: Retention on the ERRα column; settings: data not shown
T2 sequence (P11474 193-421 limits assumed): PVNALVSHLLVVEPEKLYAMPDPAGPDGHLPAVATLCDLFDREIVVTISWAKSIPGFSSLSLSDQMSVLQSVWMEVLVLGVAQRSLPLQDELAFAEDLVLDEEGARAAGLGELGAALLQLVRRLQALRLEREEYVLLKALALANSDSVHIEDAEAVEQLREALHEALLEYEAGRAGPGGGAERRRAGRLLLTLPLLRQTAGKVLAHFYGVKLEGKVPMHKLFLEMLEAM

[4] = tested on: ERRα; settings: cited from earlier work
[5] = molecular target: ERRγ; settings: cited from earlier work

Row | IC50 [1] [nM] | Kd [2] [nM] | specific retention on the ERRα column [3] | Compound | affinity for the ERRα [4] | Ki [5] [nM]
1 | 3400 | 43.2 | not specifically retained | CC/C(=C(\c1ccc(O)cc1)c1ccc(OCCNC)cc1)c1ccccc1 [Endoxifen] | no affinity | –
2 | – | – | – | CC/C(=C(\c1ccccc1)c1ccc(OCCN(C)C)cc1)c1ccccc1 [Tamoxifen] | no affinity | –
3 | 14500 | – | not specifically retained | CC/C(=C(\c1ccc(O)cc1)c1ccc(OCCN(C)C)cc1)c1ccccc1 [4-hydroxy tamoxifen] | no affinity | 75
